# Tested on: Mycobacterium tuberculosis H37Rv (susceptible)
# Assay: Resazurin Microplate Assay (REMA), anti-tubercular activity, H37Rv strain
# Assay type: cell-based
# Settings: 192 h, read-out: MIC Susceptible (H37Rv)
row,SMILES,MIC [µg/mL]
1,"O=C(C[n+]1ccc(/C=N/O)cc1)c1ccccc1.[Br-] [Compound 3a, (E)-4-((Hydroxyimino)methyl)-1-(2-oxo-2-phenylethyl)pyridin-1-ium bromide]",32
2,"O=C(C[n+]1ccc(/C=N/O)cc1)c1ccc(Br)cc1.[Br-] [Compound 3b, (E)-1-(2-(4-Bromophenyl)-2-oxoethyl)-4-((hydroxyimino)methyl)pyridin-1-ium bromide]",32
3,"O=C(C[n+]1ccc(/C=N/O)cc1)c1ccc(F)cc1.[Br-] [Compound 3c, (E)-1-(2-(4-Fluorophenyl)-2-oxoethyl)-4-((hydroxyimino)methyl)pyridin-1-ium bromide]",32
4,"N#Cc1ccc(C(=O)C[n+]2ccc(/C=N/O)cc2)cc1.[Br-] [Compound 3d, (E)-1-(2-(4-Cyanophenyl)-2-oxoethyl)-4-((hydroxyimino)methyl)pyridin-1-ium bromide]",16
5,"O=C(C[n+]1ccc(/C=N/O)cc1)c1ccccc1[N+](=O)[O-].[Br-] [Compound 3e, (E)-4-((Hydroxyimino)methyl)-1-(2-(2-nitrophenyl)-2-oxoethyl)pyridin-1-ium bromide]",64

# From patent publication US12215082B1 (priority 2023, dated 2025)
